From PMC3538728 (PLoS ONE, 2013)
Several values for one entry are separate records, joined by “and”; a condition that tells them apart may be missing. Equal entries are not always repeated. Where two headings read alike, the source gives them in different places.

Molecular target: T1, γ-secretase (Homo sapiens, UniProt P49768)
T1 construct: γ-Secretase is composed of four subunits: Aph1, Pen2, glycosylated nicastrin, and endo-proteolyzed presenilin as the catalytic core; endogenous in cells; host or cells: HeLa S3 (ATCC CCL-2.2)
T1 sequence (Q9NZ42 whole entry, other chains not shown): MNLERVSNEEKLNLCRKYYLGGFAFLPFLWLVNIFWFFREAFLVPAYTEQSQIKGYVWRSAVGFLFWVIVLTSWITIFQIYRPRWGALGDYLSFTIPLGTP
T1 sequence (Q92542 34-709, other chains not shown, further chain): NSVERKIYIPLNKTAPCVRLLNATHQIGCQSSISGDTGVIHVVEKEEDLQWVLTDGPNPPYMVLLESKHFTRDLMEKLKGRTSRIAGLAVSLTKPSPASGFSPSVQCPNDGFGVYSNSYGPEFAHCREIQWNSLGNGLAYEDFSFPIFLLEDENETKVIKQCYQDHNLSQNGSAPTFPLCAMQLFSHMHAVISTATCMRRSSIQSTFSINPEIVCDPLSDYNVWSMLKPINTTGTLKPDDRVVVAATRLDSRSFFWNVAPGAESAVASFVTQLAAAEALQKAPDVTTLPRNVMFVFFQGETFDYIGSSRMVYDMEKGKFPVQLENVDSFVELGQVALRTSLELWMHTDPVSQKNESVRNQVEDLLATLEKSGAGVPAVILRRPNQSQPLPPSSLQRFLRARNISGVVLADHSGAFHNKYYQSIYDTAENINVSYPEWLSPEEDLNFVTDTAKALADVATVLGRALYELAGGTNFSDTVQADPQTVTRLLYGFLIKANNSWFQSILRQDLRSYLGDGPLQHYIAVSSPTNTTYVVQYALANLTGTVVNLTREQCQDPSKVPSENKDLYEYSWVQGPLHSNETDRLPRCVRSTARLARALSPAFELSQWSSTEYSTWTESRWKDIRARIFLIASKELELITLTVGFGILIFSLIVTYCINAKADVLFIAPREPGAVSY
T1 sequence (Q96BI3 whole entry, other chains not shown, further chain): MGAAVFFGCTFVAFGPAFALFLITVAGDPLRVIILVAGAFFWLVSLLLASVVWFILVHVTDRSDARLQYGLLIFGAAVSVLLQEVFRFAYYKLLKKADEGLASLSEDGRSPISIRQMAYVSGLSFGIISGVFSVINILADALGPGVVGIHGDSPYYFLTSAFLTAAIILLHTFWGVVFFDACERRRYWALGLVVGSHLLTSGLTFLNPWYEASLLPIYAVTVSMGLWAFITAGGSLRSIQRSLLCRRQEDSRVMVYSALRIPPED
Experiment: Aβ 1–40 secretion from HeLa cells in the presence of DAPT (sandwich ELISA), dose-response fits
Format: cell-based
Conditions: for EC50: read-out: Activation EC50; for IC50: read-out: Inhibition IC50; for Maximal Activity that can be achieved by transfection (Aβ 1-40 secreted): HeLa transfected with cDNAwtC99
Description: HeLa cells have been transfected using Lipofectamine LTX™ reagent following the manufacturer instructions. The transfection protocol and concentration of pSG5-cDNAwtC99 plasmid have been optimized to achieve desired assay sensitivity, a gradual increase in the substrate expression level, and a smooth transition from biphasic to the standard dose-response curves (Figs. 2–3). Initially concentration of pSG5-cDNAwtC99 plasmid have been optimized by western blots using anti-flag αM2 monoclonal antibody as described in our previous study. The cells were transfected in 24-well plates. The day before transfection the cells were trypsinized and counted. About 0.85×10^5 cells were seeded per well in 0.5 ml of complete growth medium to achieve about 75% confluent cultures on the day of transfection. Before the transfection old medium was removed and replaced with fresh 0.5 ml of complete growth medium. For transfection 5X DNA concentration was diluted in 500 µl of Opti-MEM®I Reduced Serum Media and mixed with 0.7 µl of Lipofectamine LTX™ Reagent. The solution was gently mixed and incubated for 30 minutes at room temperature to form DNA- Lipofectamine LTX™ Reagent complexes. Following the 30 min incubation, 100 µl of the DNA- Lipofectamine LTX™ Reagent complexes was added directly to each well containing cells and mixed gently by rocking the plate back and forth. The cells were incubated at 37°C in a CO2 incubator for 18 hours.
Fresh medium was added 18 hours after the transfection (0.5 ml per well), to prepare the cells for incubation with DAPT [18], [51]. Different concentrations of DAPT were prepared in DMSO, and added to the cells so that the final DMSO concentration in the culture was 0.1% (v/v). DMSO vehicle represents 0 nM DAPT. The cells were incubated with DAPT at given concentrations for 15 hours.
The assay linear response is in the range from 6–125 pM of Aβ 1–40. The assays were performed by closely following the manufacturer instructions. […] Each well was filled with 50 µl of the antibody conjugate solution and 50 µl of sample. The Aβ 1–40 standards were supplied by the manufacturer and prepared in parallel with other samples. All of the prepared wells were wrapped in aluminum foil and incubated overnight at 4°C with gentle mixing. The next day each well was washed five times with 300 µl of wash solution. After each […] wash, the wash solution was poured out and the wells were dried by tapping the plates on an absorbing paper. Washed wells were filled with 100 µl of the enzyme conjugate solution, covered, and incubated for 30 min at room temperature with shaking. The washing procedure was repeated once again to remove excess of the enzyme-conjugate. Next 100 µl of the substrate solution was added in each well in dark, and kept for 30 minutes covered at room temperature. The reaction was quenched by adding 50 µl of stop solution to each well, and within 15 min the signal intensity was read by measuring absorption at 450 nm.
All experimental results were analyzed using MicroCal Origin 7.0 program, nonlinear regressions, and equations that represent specific mechanism. All results are reported as the best fit value ± standard error with two-sigma confidence intervals shown in square brackets (i.e. x±y [p, q]). Briefly, the standard error indicates random errors (i.e. precision) for each method, while the two sigma confidence intervals indicate the ability of given experimental setup to provide information about specific best-fit parameter. The random error for presented experiments is low, as indicated by a low scatter from the best fit values. The sharp confidence intervals can be obtained by taking a large number of independent data points that cover all segments that define the measured functions. […]

[1] = Aβ 1-40 secreted, untransfected HeLa cells, eqn. 1, six free fit parameters
[2] = Aβ 1-40 secretion, untransfected HeLa cells, eqn. 1, six free fit parameters
[3] = HeLa, 0 ng/mL pSG5-cDNAwtC99, eqn. 1
[4] = HeLa, 15 ng/mL pSG5-cDNAwtC99, eqn. 1
[5] = HeLa, 25 ng/mL pSG5-cDNAwtC99, eqn. 1
[6] = HeLa, 61 ng/mL pSG5-cDNAwtC99, eqn. 1
[7] = HeLa, 92 ng/mL pSG5-cDNAwtC99, eqn. 1

C[C@H](NC(=O)Cc1cc(F)cc(F)c1)C(=O)N[C@H](C(=O)OC(C)(C)C)c1ccccc1 [DAPT, N-[N-(3,5-difluorophenacetyl)-L-alanyl]-S-phenylglycine t-butyl ester]
Endogenous activity as percentage of maximal activity achieved by transfection (33 nM DAPT): 40% and 39.7% | cDNAwtC99 required to reach maximal activity (33 nM DAPT): 192 ng/mL and 191.0 ng/mL | Endogenous activity as percentage of maximal activity achieved by transfection (100 nM DAPT): 72% and 72.5% | cDNAwtC99 required to reach maximal activity (100 nM DAPT): 92.7 ng/mL | Endogenous activity as percentage of maximal activity achieved by transfection (333 nM DAPT): 92.1% | cDNAwtC99 required to reach maximal activity (333 nM DAPT): 59.8 ng/mL | Endogenous activity as percentage of maximal activity achieved by transfection (500 nM DAPT): 89.3% | cDNAwtC99 required to reach maximal activity (500 nM DAPT): 39.2 ng/mL | Endogenous activity as percentage of maximal activity achieved by transfection (1000 nM DAPT): 96.2% | cDNAwtC99 required to reach maximal activity (1000 nM DAPT): 14.0 ng/mL | Initial Activity, IA (Aβ 1-40 secreted, untransfected HeLa cells, endogenous substrate, activity at inhibitor concentration zero, eqn. 1, six free fit parameters): 31 ± 4 pM per 10^6 cells | Maximal Activity (MA), calculated activation plateau [1]: 196 pM per 10^6 cells and 196 ± 80 pM per 10^6 cells | Maximal Inhibition, MI [1]: 0.5 ± -3.4 pM per 10^6 cells | EC50 [2]: 72 ± 20 nM | IC50 [2]: 472 ± 95 nM | Maximal Activity that can be achieved by transfection (Aβ 1-40 secreted) (33 nM DAPT): 204.5 pM per 10^6 cells | Maximal Activity that can be achieved by transfection (Aβ 1-40 secreted) (100 nM DAPT): 182 pM per 10^6 cells and 182.0 pM per 10^6 cells | Maximal Activity that can be achieved by transfection (Aβ 1-40 secreted) (333 nM DAPT): 140.0 pM per 10^6 cells | Maximal Activity that can be achieved by transfection (Aβ 1-40 secreted) (500 nM DAPT): 125.0 pM per 10^6 cells | Maximal Activity that can be achieved by transfection (Aβ 1-40 secreted) (1000 nM DAPT): 44.7 pM per 10^6 cells | Activation Hill coef. [3]: 1.04 ± 0.2 | Inhibition Hill's coef [3]: 2 ± 0.3 | Maximal Activity, MA [3]: 217 ± 110 pM per 10^6 cells | Maximal Inhibition, MI [3]: -1 ± 0.1 pM per 10^6 cells | Initial Activity, IA (HeLa, 0 ng/mL pSG5-cDNAwtC99, eqn. 1, activity at zero DAPT): 32 ± 3 pM per 10^6 cells | EC50 [3]: 89 ± 17 nM | IC50 [3]: 407 ± 34 nM | Activation Hill coef. [4]: 1.08 ± 0.2 | Inhibition Hill's coef [4]: 2.4 ± 0.3 | Maximal Activity, MA [4]: 172 ± 90 pM per 10^6 cells | Maximal Inhibition, MI [4]: 0.33 ± 0.7 pM per 10^6 cells | Initial Activity, IA (HeLa, 15 ng/mL pSG5-cDNAwtC99, eqn. 1, activity at zero DAPT): 41 ± 3 pM per 10^6 cells | EC50 [4]: 71 ± 21 nM | IC50 [4]: 588 ± 35 nM | Activation Hill coef. [5]: 1.0 ± 0.1 | Inhibition Hill's coef [5]: 2.2 ± 0.4 | Maximal Activity, MA [5]: 205 ± 80 pM per 10^6 cells | Maximal Inhibition, MI [5]: -0.2 ± 0.1 pM per 10^6 cells | Initial Activity, IA (HeLa, 25 ng/mL pSG5-cDNAwtC99, eqn. 1, activity at zero DAPT): 51 ± 5 pM per 10^6 cells | EC50 [5]: 110 ± 34 nM | IC50 [5]: 524 ± 71 nM | Activation Hill coef. [6]: 1.13 ± 0.6 | Inhibition Hill's coef [6]: 2.3 ± 0.5 | Maximal Activity, MA [6]: 180 ± 145 pM per 10^6 cells | Maximal Inhibition, MI [6]: 1.2 ± 0.2 pM per 10^6 cells | Initial Activity, IA (HeLa, 61 ng/mL pSG5-cDNAwtC99, eqn. 1, activity at zero DAPT): 91 ± 6 pM per 10^6 cells | EC50 [6]: 107 ± 36 nM | IC50 [6]: 489 ± 62 nM | Activation Hill coef. [7]: 0.92 ± 0.3 | Inhibition Hill's coef [7]: 1.7 ± 0.6 | Maximal Activity, MA [7]: 170 ± 95 pM per 10^6 cells
